Holding throughout (test): PrestoBlue cell viability, 72-hour treatment, limiting dilution
The subject of one assay is D425. It is filed as cell-based. The settings on record: Homo sapiens; D425, G3MB-MYC; read-out: Brequinar IC50. On the procedure: (§1) SU_MB002, NSC194, NSC197 and NSC201FT, MBT375 and MED411FHTC were maintained in Neurocult Complete (NCC) media (Stem Cell Technologies; catalogue #05751). D425 and D458 were maintained in Dulbecco's […] (DMEM) containing 10% fetal bovine serum (FBS). HD-MB03 were maintained in NCC containing 10% FBS. All cell lines were conditioned in NCC for a minimum of 48 hours before experimentation. SU_MB002 and HD-MB03 G3MB-MYC PDOX were obtained from collaborators as kind gifts and are frequently passaged in vivo. SU_MB002, a treatment-refractory group 3 MB acquired at autopsy was received from Dr. Yoon-Jae Cho. Dr. Till Milde provided HD-MB03, a treatment-naïve group 3 MBs. ICB1299 group 4 MB cells were obtained as a gift from Silvia Marino's laboratory^62. MBT375 was established in-house from a surgical specimen of group 4 MB, which was engrafted in the cerebellum of mice for serial propagation. Nanostring genotyping was used to confirm group 4 medulloblastoma identity. MED411FHTC PDOX were procured from Dr. Olson's brain tumor research lab. D425 and D458 were obtained from the ATCC. All cell lines were fingerprint verified by short tandem repeat (STR) profiling. NSC194, NSC197 and NSC201FT were derived in-house from donor fetal brain tissues^63.
(§2) For assessment of viability, cells were seeded into 96-well plates at a density of 1,000 cells per well. Viability was measured by adding PrestoBlue™ diluted 1:10 (ThermoFisher Scientific; Catalogue #A13261) followed by a 4-hour incubation. Relative fluorescence intensity was determined via background correction. To assess tumorsphere forming capacity, cells were seeded at a low density (200 cells per well) and incubated for 3-5 days. Tumorspheres were manually counted thereafter.

In a further assay the test system is D458. The format is cell-based. Conditions: Homo sapiens; D458, G3MB-MYC; read-out: Brequinar IC50. On the procedure: as §1, §2
In the next assay the test system is HD-MB03. The format is cell-based. Conditions: Homo sapiens; HD-MB03, G3MB-MYC; read-out: Brequinar IC50. On the procedure: as §1, §2
The test system of another assay is MED411-FHTC. The format is cell-based. The settings on record: Homo sapiens, G3MB-MYC, read-out: Brequinar IC50. As for the experimental part:
as §1, §2

The test system of another assay is SU_MB002. The format is cell-based, human. The settings on record: for potency on tumor cell viability: SU_MB002 tumor cells. As for the experimental part:
as §1, §2

We go through 2 molecules from patent US20250152559A1, “METHODS FOR TREATING MYC-AMPLIFIED CANCER” (The Governing Council of the University of Toronto, priority 2023, published 2025).

Broadly, the IC50 is the concentration at which inhibition is half-maximal.

Turning to `Cc1c(-c2ccc(-c3ccccc3F)cc2)nc2ccc(F)cc2c1C(=O)O` [Brequinar], the IC50 in the assay with D425 came out at 122 nM; in the assay on D458, 110 nM; in the assay on HD-MB03, 54.4 nM; in the assay on MED411-FHTC, 137 nM; in the assay with SU_MB002 (Homo sapiens, SU_MB002, G3MB-MYC, read-out: Brequinar IC50), 302 nM. In addition, the “tumor cell proliferation and viability with uridine supplementation” value with SU_MB002 (SU_MB002, media with uridine hydrochloride (100 μM)) was “rescues”. The “potency on tumor cell viability” value in the assay with SU_MB002 is given as “nanomolar range”.

On to `COc1ccc([C@H]2c3[nH]c4ccc(Cl)cc4c3CCN2C(=O)Oc2ccc(Cl)cc2)cc1` [PTC299], for which the “potency on tumor cell viability” value in the assay on SU_MB002 is on record as “nanomolar range”.
